This note sets out measurements from ChEMBL document CHEMBL5244281, “Tackling multidrug-resistant Staphylococcus aureus by natural products and their analogues acting as NorA efflux pump inhibitors” (Bioorg Med Chem, 2023).

In brackets after ≈: the same amount, converted by molar mass. Bounds are passed on as bounds.

In assay [1] the test system is Staphylococcus aureus. Nature of the assay: Antibacterial activity against methicillin-resistant Staphylococcus aureus clinical isolate assessed as bacterial growth inhibition by broth dilution method. In kind it is functional.
Assay [2] concerns the target T1, Quinolone resistance protein NorA (Staphylococcus aureus) (UniProt P0A0J7).
T1 sequence (whole entry): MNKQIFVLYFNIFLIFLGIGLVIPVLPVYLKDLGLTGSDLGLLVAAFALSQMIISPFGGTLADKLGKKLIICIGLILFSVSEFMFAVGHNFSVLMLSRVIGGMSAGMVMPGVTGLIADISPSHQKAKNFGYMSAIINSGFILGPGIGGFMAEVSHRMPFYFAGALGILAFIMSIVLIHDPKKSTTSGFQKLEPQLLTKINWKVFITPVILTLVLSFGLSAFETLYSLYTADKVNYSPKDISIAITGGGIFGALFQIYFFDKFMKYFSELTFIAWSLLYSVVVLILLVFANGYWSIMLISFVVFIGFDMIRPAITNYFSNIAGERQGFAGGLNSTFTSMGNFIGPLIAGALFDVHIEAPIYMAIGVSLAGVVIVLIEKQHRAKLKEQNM
Nature of the assay: Inhibition of NorA efflux pump in methicillin-resistant Staphylococcus aureus clinical isolate assessed as EtBr MIC using EtBr as substrate at 64 ug/ml and measured for 20 mins by spectrofluorimetric analysis (Rvb=[…] ug/ml). The note with it: dose 64.0 µg/ml.

Assay [3] relates to Staphylococcus aureus. Kind of assay: Synergistic antibacterial activity against methicillin-resistant Staphylococcus aureus clinical isolate assessed as fractional inhibitory concentration index in presence of ciprofloxacin by checkerboard assay. In kind it is functional.
Assay [4] concerns the target T1, Quinolone resistance protein NorA (Staphylococcus aureus). Nature of the assay: Inhibition of NorA efflux pump in methicillin-resistant Staphylococcus aureus clinical isolate assessed as decrease in ciprofloxacin MIC and measured for 20 mins in presence of ciprofloxacin by spectrofluorimetric analysis (Rvb=128 ug/ml).
Assay [5] has the same target. Kind of assay: Inhibition of NorA efflux pump in Staphylococcus aureus 1199B overexpressing NorA efflux pump assessed as decrease in ciprofloxacin MIC and […] (Rvb=8 ug/ml).
Assay [6] has as its system Staphylococcus aureus. Kind of assay: Antimicrobial activity against Staphylococcus aureus ATCC 29213 assessed as bacterial growth inhibition incubated for 18 hrs by broth microdilution assay. It is filed as functional.
For assay [7], the system named is Staphylococcus aureus. Kind of assay: Antimicrobial activity against Staphylococcus aureus ATCC 43300 assessed as bacterial growth inhibition incubated for 18 hrs by broth microdilution assay. In kind it is functional.
For assay [8], the system named is Staphylococcus aureus. Nature of the assay: Antimicrobial activity against Staphylococcus aureus BAA-44 assessed as bacterial growth inhibition incubated for 18 hrs by broth microdilution assay. In kind it is functional.
Assay [9] has as its system Escherichia coli. Kind of assay: Antimicrobial activity against Escherichia coli ATCC 25922 assessed as bacterial growth inhibition incubated for 18 hrs by broth microdilution assay. It is filed as functional.
The subject of another assay is Enterococcus faecalis. Nature of the assay: Antimicrobial activity against Enterococcus faecalis ATCC 29212 assessed as bacterial growth inhibition incubated for 18 hrs by broth microdilution assay. It is filed as functional.
The subject of the next assay is Enterococcus faecium. Nature of the assay: Antimicrobial activity against Enterococcus faecium ATCC 700221 assessed as bacterial growth inhibition incubated for 18 hrs by broth microdilution assay. It is filed as functional.
The test system of the next assay is Klebsiella pneumoniae. Kind of assay: Antimicrobial activity against Klebsiella pneumoniae 1213-2 assessed as bacterial growth inhibition incubated for 18 hrs by broth microdilution assay. In kind it is functional.
The test system of assay [10] is Staphylococcus aureus. Kind of assay: Antibacterial activity against Staphylococcus aureus 1199B overexpressing NorA efflux protein assessed as bacterial growth inhibition incubated for 24 hrs by microdilution method. In kind it is functional.
Assay [11] concerns Staphylococcus aureus. Nature of the assay: Antibacterial activity against wild type Staphylococcus aureus ATCC 25923 assessed as bacterial growth inhibition incubated for 24 hrs by microdilution method. It is filed as functional.
Assay [12] relates to Escherichia coli. Nature of the assay: Antibacterial activity against Escherichia coli ATCC 25922 assessed as bacterial growth inhibition incubated for 24 hrs by microdilution method. It is filed as functional.
The next assay concerns Candida albicans. Kind of assay: Antimicrobial activity against Candida albicans ATCC 10231 assessed as […] growth inhibition incubated for 24 hrs by microdilution method. It is filed as functional.
Assay [13] has as its target T1, Quinolone resistance protein NorA (Staphylococcus aureus). Conditions: 1199B.
Assay [14] deals with Staphylococcus aureus. Nature of the assay: Antibacterial activity against Staphylococcus aureus 1199B overexpressing NorA efflux pump assessed as bacterial growth inhibition incubated for 18 hrs by broth dilution method. In kind it is functional.
The subject of assay [15] is Staphylococcus aureus. Kind of assay: Antibacterial activity against Staphylococcus aureus K1758 with NorA knockout assessed as bacterial growth inhibition incubated for 18 hrs by broth dilution method. In kind it is functional.
Assay [16] concerns the target T1, Quinolone resistance protein NorA (Staphylococcus aureus). Nature of the assay: Inhibition of NorA efflux pump in Staphylococcus aureus 1199B overexpressing NorA efflux pump assessed as decrease in ciprofloxacin MIC at 1/4 times MIC and measured for 45 mins in presence of ciprofloxacin by fluorimetric analysis (Rvb=8 ug/ml).
Assay [17] has the same target. Nature of the assay: Inhibition of NorA efflux pump in Staphylococcus aureus 1199B overexpressing NorA efflux pump assessed as decrease in norfloxacin MIC at 1/4 times MIC and measured for 45 mins in presence of norfloxacin by fluorimetric analysis (Rvb=32 ug/ml).
For assay [18] the target is unchanged. Nature of the assay: Potentiation of ciprofloxacin-induced inhibition of NorA efflux pump in Staphylococcus aureus 1199B overexpressing NorA efflux pump assessed as ciprofloxacin MIC at 100 ug/ml for 18 to 20 hrs by checkerboard method (Rvb=4 ug/ml). Conditions: dose 100.0 µg/ml, time 18-20 hrs.
The target is the same in assay [19]. Nature of the assay: Potentiation of ciprofloxacin-induced inhibition of NorA efflux pump in Staphylococcus aureus 1199 assessed as ciprofloxacin MIC at 100 ug/ml for 18 to 20 hrs by checkerboard method (Rvb=0.25 ug/ml). The note with it: dose 100.0 µg/ml, time 18-20 hrs.
Assay [20] has the same target. Kind of assay: Inhibition of NorA efflux pump in Staphylococcus aureus 1199B overexpressing NorA efflux pump assessed as minimum effective concentration for 18 to 20 hrs. The note with it: time 18-20 hrs.

As to `COC(=O)/C=C/c1ccc(OCC(=O)Nc2ccc(C)cc2)c(OC)c1`, the MIC was greater than 125 µg/mL in the assay with Staphylococcus aureus [1], 4 µg/mL in assay [2], 64 µg/mL in assay [4] and 2 µg/mL in assay [5]. Besides, in the assay with Staphylococcus aureus [3], the “fractional inhibitory concentration index (FICI)” value was 0.75.

`CN(CC[C@H](N)CC(=O)N[C@H]1C=C[C@H](n2ccc(N)nc2=O)O[C@@H]1C(N)=O)C(=N)N`: the MIC in the assay with Staphylococcus aureus [6] was found to be 6.25 µg/mL (≈ 14.8 µM); in the assay on Staphylococcus aureus [7], 12.5 µg/mL (≈ 29.7 µM); in the assay on Staphylococcus aureus [8], 12.5 µg/mL (≈ 29.7 µM); in the assay on Escherichia coli [9], 12.5 µg/mL (≈ 29.7 µM); in the assay on Enterococcus faecalis, 12.5 µg/mL (≈ 29.7 µM); in the assay with Enterococcus faecium, 50 µg/mL (≈ 119 µM). For the same compound, the MIC in the assay on Klebsiella pneumoniae was 50 µg/mL (≈ 119 µM).

Take `COc1ccc(/C=C/[C@@H]2c3c(cc(O)cc3OC)C[C@H]3c4ccc(O)cc4O[C@H](c4ccccc4)[C@@H]23)cc1`: the MIC is greater than 1020 µg/mL with Staphylococcus aureus [10]; greater than 1020 µg/mL with Staphylococcus aureus [11]; greater than 1020 µg/mL with Escherichia coli [12]; 161 µg/mL (≈ 318 µM) with Candida albicans; 16 µg/mL (≈ 31.6 µM) in assay [13].

For the compound `O=C(/C=C/c1ccco1)N/N=C/c1ccc(Br)o1`, the MIC with Staphylococcus aureus [14] came to 64 µg/mL (≈ 207 µM); in the assay with Staphylococcus aureus [15] it was 64 µg/mL (≈ 207 µM); in assay [16], 0.5 µg/mL; in assay [17], 1 µg/mL.

On to `CCN(CC)C(=O)/C=C/c1ccc(OC(C)=O)c(OC)c1`, for which the MIC with Staphylococcus aureus [1] is greater than 125 µg/mL; in [2], 4 µg/mL; in [4], 32 µg/mL. The “fractional inhibitory concentration index (FICI)” value in the assay with Staphylococcus aureus [3] was 0.325.

For `COc1cc(O)cc2c1[C@@H](/C=C/c1ccc(O)cc1)[C@@H]1[C@@H](c3ccccc3)Oc3cc(O)ccc3[C@@H]1O2`, the MIC in the assay with Staphylococcus aureus [10], in the assay with Staphylococcus aureus [11], with Escherichia coli [12] and in the assay with Candida albicans was greater than 1020 µg/mL in each case.

Turning to `CC(C)/C=C/CCCCC(=O)NCc1ccc(O)c(OCc2nnc(Nc3cccc(Br)c3)o2)c1`, the MIC in assay [18] stood at 0.5 µg/mL; in assay [19] it was 0.12 µg/mL. For the same compound, the MEC in assay [20] was found to be 12.5 µg/mL.
